According to ChEMBL document CHEMBL4184140, “Expanding the tetrahydroquinoline pharmacophore” (Bioorg Med Chem Lett, 2017):
The source made the active and inactive calls. The rule behind the calls is not given here.

Tested on: A549
Experiment: Antiproliferative activity against human A549 cells
Format: functional, cell-based
Details: not given

Compound | Activity
CC(=O)N1c2ccccc2[C@@H]2[C@@H](C[C@@H]3O[C@H]23)[C@H]1c1ccc(Cl)cc1 | inactive
C=CCO[C@@H]1[C@@H]2c3ccccc3N(C(C)=O)[C@H](c3ccc(Cl)cc3)[C@@H]2C[C@H]1N=[N+]=[N-] | inactive
CC(=O)N1c2cc([N+](=O)[O-])ccc2[C@@H]2[C@@H](C[C@@H]3O[C@H]23)[C@H]1c1ccccc1 | inactive
C=CCO[C@@H]1[C@@H]2c3ccccc3N(C(C)=O)[C@H](c3ccccc3)[C@@H]2C[C@H]1N=[N+]=[N-] | inactive
CC(=O)N1c2ccc(Br)cc2[C@H]2C=CC[C@H]2[C@H]1c1ccccc1 | inactive
C=CCO[C@H]1C(n2cc(-c3ccccc3)nn2)C[C@@H]2[C@H]1c1ccccc1N(C(C)=O)[C@@H]2c1ccccc1 (single isomer, unassigned) | inactive
O[C@@H]1[C@@H]2c3cc(Br)ccc3N[C@H](c3ccccc3)[C@@H]2C[C@@H]1O | inactive
Brc1cccc([C@H]2Nc3ccccc3[C@H]3C=CC[C@H]32)c1 | inactive

Tested on: IMR-32
Experiment: Neurotrophic activity in human IMR32 cells assessed as appearance of neurites at 1 to 10 uM after 96 hrs by bright field microscopic analysis
Format: functional, cell-based
Details: not given

Compound | Activity
CC(=O)N1c2ccccc2[C@@H]2[C@@H](C[C@@H]3O[C@H]23)[C@H]1c1ccc(Cl)cc1 | inactive
C=CCO[C@@H]1[C@@H]2c3ccccc3N(C(C)=O)[C@H](c3ccc(Cl)cc3)[C@@H]2C[C@H]1N=[N+]=[N-] | inactive
C=CCO[C@@H]1[C@@H]2c3ccccc3N(C(C)=O)[C@H](c3ccccc3)[C@@H]2C[C@H]1N=[N+]=[N-] | inactive
CC(=O)N1c2ccc(Br)cc2[C@H]2C=CC[C@H]2[C@H]1c1ccccc1 | inactive
C=CCO[C@H]1C(n2cc(-c3ccccc3)nn2)C[C@@H]2[C@H]1c1ccccc1N(C(C)=O)[C@@H]2c1ccccc1 (single isomer, unassigned) | inactive
O[C@@H]1[C@@H]2c3cc(Br)ccc3N[C@H](c3ccccc3)[C@@H]2C[C@@H]1O | inactive
Brc1cccc([C@H]2Nc3ccccc3[C@H]3C=CC[C@H]32)c1 | inactive

Tested on: IMR-32
Experiment: Neurotrophic activity in human IMR32 cells assessed as induction of differentiation at 10 uM after 96 hrs by bright filed microscopic method
Format: functional, cell-based
Details: not given

Compound | Activity
CC(=O)N1c2cc([N+](=O)[O-])ccc2[C@@H]2[C@@H](C[C@@H]3O[C@H]23)[C@H]1c1ccccc1 | Active

Tested on: DU-145
Experiment: Antiproliferative activity against human DU145 cells
Format: functional, cell-based
Details: not given

Compound | Activity
CC(=O)N1c2ccccc2[C@@H]2[C@@H](C[C@@H]3O[C@H]23)[C@H]1c1ccc(Cl)cc1 | inactive
C=CCO[C@@H]1[C@@H]2c3ccccc3N(C(C)=O)[C@H](c3ccc(Cl)cc3)[C@@H]2C[C@H]1N=[N+]=[N-] | inactive
CC(=O)N1c2cc([N+](=O)[O-])ccc2[C@@H]2[C@@H](C[C@@H]3O[C@H]23)[C@H]1c1ccccc1 | inactive
C=CCO[C@@H]1[C@@H]2c3ccccc3N(C(C)=O)[C@H](c3ccccc3)[C@@H]2C[C@H]1N=[N+]=[N-] | inactive
CC(=O)N1c2ccc(Br)cc2[C@H]2C=CC[C@H]2[C@H]1c1ccccc1 | inactive
C=CCO[C@H]1C(n2cc(-c3ccccc3)nn2)C[C@@H]2[C@H]1c1ccccc1N(C(C)=O)[C@@H]2c1ccccc1 (single isomer, unassigned) | inactive
O[C@@H]1[C@@H]2c3cc(Br)ccc3N[C@H](c3ccccc3)[C@@H]2C[C@@H]1O | inactive
Brc1cccc([C@H]2Nc3ccccc3[C@H]3C=CC[C@H]32)c1 | inactive

Tested on: IMR-32
Experiment: Cytotoxicity against human IMR32 cells after 48 hrs by SRB assay
Format: cell-based
Details: IMR-32, 48 h

Compound | IC50
CC(=O)N1c2ccccc2[C@@H]2[C@@H](C[C@@H]3O[C@H]23)[C@H]1c1ccc(Cl)cc1 | > 100 µM
C=CCO[C@@H]1[C@@H]2c3ccccc3N(C(C)=O)[C@H](c3ccc(Cl)cc3)[C@@H]2C[C@H]1N=[N+]=[N-] | 66.5 µM
CC(=O)N1c2cc([N+](=O)[O-])ccc2[C@@H]2[C@@H](C[C@@H]3O[C@H]23)[C@H]1c1ccccc1 | 56 µM
C=CCO[C@@H]1[C@@H]2c3ccccc3N(C(C)=O)[C@H](c3ccccc3)[C@@H]2C[C@H]1N=[N+]=[N-] | 17.4 µM
CC(=O)N1c2ccc(Br)cc2[C@H]2C=CC[C@H]2[C@H]1c1ccccc1 | 89.9 µM
C=CCO[C@H]1C(n2cc(-c3ccccc3)nn2)C[C@@H]2[C@H]1c1ccccc1N(C(C)=O)[C@@H]2c1ccccc1 (single isomer, unassigned) | 65 µM
O[C@@H]1[C@@H]2c3cc(Br)ccc3N[C@H](c3ccccc3)[C@@H]2C[C@@H]1O | > 100 µM
Brc1cccc([C@H]2Nc3ccccc3[C@H]3C=CC[C@H]32)c1 | > 100 µM

Tested on: HepG2
Experiment: Antiproliferative activity against human HepG2 cells
Format: functional, cell-based
Details: not given

Compound | Activity
CC(=O)N1c2ccccc2[C@@H]2[C@@H](C[C@@H]3O[C@H]23)[C@H]1c1ccc(Cl)cc1 | inactive
C=CCO[C@@H]1[C@@H]2c3ccccc3N(C(C)=O)[C@H](c3ccc(Cl)cc3)[C@@H]2C[C@H]1N=[N+]=[N-] | inactive
CC(=O)N1c2cc([N+](=O)[O-])ccc2[C@@H]2[C@@H](C[C@@H]3O[C@H]23)[C@H]1c1ccccc1 | inactive
C=CCO[C@@H]1[C@@H]2c3ccccc3N(C(C)=O)[C@H](c3ccccc3)[C@@H]2C[C@H]1N=[N+]=[N-] | inactive
CC(=O)N1c2ccc(Br)cc2[C@H]2C=CC[C@H]2[C@H]1c1ccccc1 | inactive
C=CCO[C@H]1C(n2cc(-c3ccccc3)nn2)C[C@@H]2[C@H]1c1ccccc1N(C(C)=O)[C@@H]2c1ccccc1 (single isomer, unassigned) | inactive
O[C@@H]1[C@@H]2c3cc(Br)ccc3N[C@H](c3ccccc3)[C@@H]2C[C@@H]1O | inactive
Brc1cccc([C@H]2Nc3ccccc3[C@H]3C=CC[C@H]32)c1 | inactive

Tested on: MCF7
Experiment: Antiproliferative activity against human MCF7 cells
Format: functional, cell-based
Details: not given

Compound | Activity
CC(=O)N1c2ccccc2[C@@H]2[C@@H](C[C@@H]3O[C@H]23)[C@H]1c1ccc(Cl)cc1 | inactive
C=CCO[C@@H]1[C@@H]2c3ccccc3N(C(C)=O)[C@H](c3ccc(Cl)cc3)[C@@H]2C[C@H]1N=[N+]=[N-] | inactive
CC(=O)N1c2cc([N+](=O)[O-])ccc2[C@@H]2[C@@H](C[C@@H]3O[C@H]23)[C@H]1c1ccccc1 | inactive
C=CCO[C@@H]1[C@@H]2c3ccccc3N(C(C)=O)[C@H](c3ccccc3)[C@@H]2C[C@H]1N=[N+]=[N-] | inactive
CC(=O)N1c2ccc(Br)cc2[C@H]2C=CC[C@H]2[C@H]1c1ccccc1 | inactive
C=CCO[C@H]1C(n2cc(-c3ccccc3)nn2)C[C@@H]2[C@H]1c1ccccc1N(C(C)=O)[C@@H]2c1ccccc1 (single isomer, unassigned) | inactive
O[C@@H]1[C@@H]2c3cc(Br)ccc3N[C@H](c3ccccc3)[C@@H]2C[C@@H]1O | inactive
Brc1cccc([C@H]2Nc3ccccc3[C@H]3C=CC[C@H]32)c1 | inactive
